{
  "source": "patent US7482008B1",
  "about": "“Human T cell reactive feline protein (TRFP) isolated from house dust and uses therefor” (Merck Patent GmbH, priority 1989, dated 2009)",
  "test_system": "BDF1 mice preimmunized with TRFP",
  "assay": "Peptide Y tolerization of mice preimmunized with TRFP, IL-2 (CTLL-2) and IL-4 (CT4S) production",
  "format": "in vivo, mouse",
  "procedure": "BDF1 mice were each immunized with 100 μg TRFP in 200 μl IFA (Incomplete Freund's Adjuvant) in a single site intraperitoneally. After four months, the mice were bled and grouped according to their anti-TRFP IgG antibody levels as follows. The mice were warmed with an infra-red lamp and bled through one of the tail veins by nicking the vein with a razor blade (Gilette Platinum Plus). The blood was allowed to drip into a serum separating tube (Microtainer, Becton-Dickenson) and allowed to clot. The sera was then separated from the clot by centrifugation at 13,000 rpm. The sera was stored at −20° C. until use. The sera was assayed for TRFP-specific IgG by ELISA. […] After rinsing, the bound mouse antibody was detected by incubation with biotinylated goat anti-mouse IgG (Southern Biotechnology Associates) diluted 1/10000 in PBS. […] The resulting O.D. values were read by an ELISA reader (Bio-Tek modal #310) at 450 nm to quantitate the complexes bound to TRFP protein on the plates. […]\nThere are several phenotypic classes of T helper cells which can be differentiated by their production of lymphokines. […] IL-2 production is easily measured from primary in vitro lymph node cultures through the IL-2 dependent CTLL-2 cell line. Similarly, IL-4 can be measured with cultures of the IL-4 dependent CT4S cells (provided by W. Paul). […] The plates were harvested and counted identically to the IL-2 assays detailed above. […]",
  "data": [
    {"substance": "peptide Y: amino acid residues 29-55 from chain 1 of TRFP (SEQ. ID. NO: 18) (KALPVVLENARILKNCVDAKMTEEDKE)", "values": [
      {"measurement": "tolerization of peptide Y specific T cells (IL-2)", "setting": "300 μg s.c. days 0 and 5, animals preimmunized with TRFP", "result": "can be tolerized"},
      {"measurement": "peptide specific production of both IL-2 and IL-4 in secondary in vitro cultures", "setting": "pooled lymph node cells, stimulation index", "result": "decreased"}
    ]}
  ]
}
